Measured values: US20190330224A1, “ACC INHIBITORS AND USES THEREOF” (Gilead Apollo, LLC, priority 2015, published 2019)
In brackets after ≈: the same amount, converted by molar mass.

Legend:
[1] = compound concentration 10 ppm, foliar spray, evaluated 7 days after inoculation
Human ACC2 = Human ACC2 (Homo sapiens, UniProt O00763); assay: In vitro ACC2 inhibition assay (ADP-Glo), human ACC2; assay type: biochemical; details: 5 nM ACC2, 20 μM ATP, 20 μM acetyl-CoA
C. albicans ATCC 90028 = assay: Anti-Fungal Activity Assay (broth microtiter MIC), C. albicans; assay type: cell-based, Candida albicans; details: Candida albicans, ATCC90028, 48 h, 3 replicates; MIC recorded at 48 h; read-out: MIC C. albicans ATCC 90028
Outline: (§1)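 Plate from frozen stock onto Sabouraud dextrose agar, 35° C overnight; swab colonies into RPMI 1640+MOPS; set density via standard curves; run CLSI M27-A3 broth microdilution; score MIC visually versus growth control at 48 h, soraphen additionally at 24 h.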

C. krusei ATCC 6258 = assay: Anti-Fungal Activity Assay (broth microtiter MIC), C. krusei; assay type: cell-based, Candida krusei; details: Pichia kudriavzevii, ATCC6258, 48 h, 3 replicates; MIC recorded at 48 h; read-out: MIC C. krusei ATCC 6258
Outline: as §1

[2] = test system: C. parapsilosis ATCC 22019; assay: Anti-Fungal Activity Assay (broth microtiter MIC), C. parapsilosis; assay type: cell-based, Candida parapsilosis; details: Lodderomyces parapsilosis, ATCC22019, 48 h, 3 replicates; MIC recorded at 48 h; read-out: MIC C. parapsilosis ATCC 22019
Outline: as §1

Botrtyis cinerea (Bc) = assay: Growth inhibition assay of fungal pathogens, Bc; assay type: cell-based; details: 48 hours; read-out: Concentration at 90% Inhibition, Bc
Outline: (§2)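 Spores in 17% V8 medium exposed to compound at final 50, 10, 2 ppm or 2, 0.4, 0.08 ppm, with 2% DMSO. OD600 and visual ratings taken at 24 and 48 h, with blank subtracted. Percent growth inhibition derived from 48 h readings relative to 2% DMSO control.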

[3] = test system: Collectotrichum graminicola (Cg); assay: Growth inhibition assay of fungal pathogens, Cg; assay type: cell-based; details: 48 hours; read-out: Concentration at 90% Inhibition, Cg
Outline: as §2

Diplodia maydis (Dm) = assay: Growth inhibition assay of fungal pathogens, Dm; assay type: cell-based; details: Stenocarpella maydis; 48 hours; read-out: Concentration at 90% Inhibition, Dm
Outline: as §2

[4] = test system: Fusarium moniliforme (Fm); assay: Growth inhibition assay of fungal pathogens, Fm; assay type: cell-based; details: Fusarium verticillioides; 48 hours; read-out: Concentration at 90% Inhibition, Fm
Outline: as §2

[5] = test system: Fusarium virguliforme (Fv); assay: Growth inhibition assay of fungal pathogens, Fv; assay type: cell-based; details: 48 hours, read-out: Concentration at 90% Inhibition, Fv
Outline: as §2

[6] = test system: Phytophthora capsici (Pc); assay: Growth inhibition assay of fungal pathogens, Pc; assay type: cell-based; details: 48 hours, read-out: Concentration at 90% Inhibition, Pc
Outline: as §2

Rhizoctonia solani (Rs) = assay: Growth inhibition assay of fungal pathogens, Rs; assay type: cell-based; details: 48 hours, read-out: Concentration at 90% Inhibition, Rs
Septoria tritici (St) = assay: Growth inhibition assay of fungal pathogens, St; assay type: cell-based; details: Zymoseptoria tritici; 48 hours; read-out: Concentration at 90% Inhibition, St
Outline: as §2

[7] = test system: Blumeria graminis f sp. hordei; assay: Foliar protection test, barley powdery mildew control; assay type: in vivo, Blumeria graminis f sp. hordei on Hordeum vulgare cv. Perry; details: 168 h, compound concentration 50 ppm, foliar spray, evaluated 7 days after inoculation, read-out: Barley Powdery Mildew Control at 50 ppm
Outline: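 Barley cv. Perry at first true leaf (6 days) sprayed to wetness on both leaf sides with compound in 5% acetone/0.005% Tween 80, typically at 200, 100, 50, 10 or 2 ppm. Inoculated 24 h later by shaking spores from colonized plants; kept at 20-22 °C, 70% RH. Mildew colonization scored 7 days later as percent control.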

Fungal ACC2 = Fungal ACC2 (UniProt Q00955); details: read-out: Fungal ACC2 (IC50, in vitro ACC2 inhibition)
Chain of Fungal ACC2 (Q00955 whole entry): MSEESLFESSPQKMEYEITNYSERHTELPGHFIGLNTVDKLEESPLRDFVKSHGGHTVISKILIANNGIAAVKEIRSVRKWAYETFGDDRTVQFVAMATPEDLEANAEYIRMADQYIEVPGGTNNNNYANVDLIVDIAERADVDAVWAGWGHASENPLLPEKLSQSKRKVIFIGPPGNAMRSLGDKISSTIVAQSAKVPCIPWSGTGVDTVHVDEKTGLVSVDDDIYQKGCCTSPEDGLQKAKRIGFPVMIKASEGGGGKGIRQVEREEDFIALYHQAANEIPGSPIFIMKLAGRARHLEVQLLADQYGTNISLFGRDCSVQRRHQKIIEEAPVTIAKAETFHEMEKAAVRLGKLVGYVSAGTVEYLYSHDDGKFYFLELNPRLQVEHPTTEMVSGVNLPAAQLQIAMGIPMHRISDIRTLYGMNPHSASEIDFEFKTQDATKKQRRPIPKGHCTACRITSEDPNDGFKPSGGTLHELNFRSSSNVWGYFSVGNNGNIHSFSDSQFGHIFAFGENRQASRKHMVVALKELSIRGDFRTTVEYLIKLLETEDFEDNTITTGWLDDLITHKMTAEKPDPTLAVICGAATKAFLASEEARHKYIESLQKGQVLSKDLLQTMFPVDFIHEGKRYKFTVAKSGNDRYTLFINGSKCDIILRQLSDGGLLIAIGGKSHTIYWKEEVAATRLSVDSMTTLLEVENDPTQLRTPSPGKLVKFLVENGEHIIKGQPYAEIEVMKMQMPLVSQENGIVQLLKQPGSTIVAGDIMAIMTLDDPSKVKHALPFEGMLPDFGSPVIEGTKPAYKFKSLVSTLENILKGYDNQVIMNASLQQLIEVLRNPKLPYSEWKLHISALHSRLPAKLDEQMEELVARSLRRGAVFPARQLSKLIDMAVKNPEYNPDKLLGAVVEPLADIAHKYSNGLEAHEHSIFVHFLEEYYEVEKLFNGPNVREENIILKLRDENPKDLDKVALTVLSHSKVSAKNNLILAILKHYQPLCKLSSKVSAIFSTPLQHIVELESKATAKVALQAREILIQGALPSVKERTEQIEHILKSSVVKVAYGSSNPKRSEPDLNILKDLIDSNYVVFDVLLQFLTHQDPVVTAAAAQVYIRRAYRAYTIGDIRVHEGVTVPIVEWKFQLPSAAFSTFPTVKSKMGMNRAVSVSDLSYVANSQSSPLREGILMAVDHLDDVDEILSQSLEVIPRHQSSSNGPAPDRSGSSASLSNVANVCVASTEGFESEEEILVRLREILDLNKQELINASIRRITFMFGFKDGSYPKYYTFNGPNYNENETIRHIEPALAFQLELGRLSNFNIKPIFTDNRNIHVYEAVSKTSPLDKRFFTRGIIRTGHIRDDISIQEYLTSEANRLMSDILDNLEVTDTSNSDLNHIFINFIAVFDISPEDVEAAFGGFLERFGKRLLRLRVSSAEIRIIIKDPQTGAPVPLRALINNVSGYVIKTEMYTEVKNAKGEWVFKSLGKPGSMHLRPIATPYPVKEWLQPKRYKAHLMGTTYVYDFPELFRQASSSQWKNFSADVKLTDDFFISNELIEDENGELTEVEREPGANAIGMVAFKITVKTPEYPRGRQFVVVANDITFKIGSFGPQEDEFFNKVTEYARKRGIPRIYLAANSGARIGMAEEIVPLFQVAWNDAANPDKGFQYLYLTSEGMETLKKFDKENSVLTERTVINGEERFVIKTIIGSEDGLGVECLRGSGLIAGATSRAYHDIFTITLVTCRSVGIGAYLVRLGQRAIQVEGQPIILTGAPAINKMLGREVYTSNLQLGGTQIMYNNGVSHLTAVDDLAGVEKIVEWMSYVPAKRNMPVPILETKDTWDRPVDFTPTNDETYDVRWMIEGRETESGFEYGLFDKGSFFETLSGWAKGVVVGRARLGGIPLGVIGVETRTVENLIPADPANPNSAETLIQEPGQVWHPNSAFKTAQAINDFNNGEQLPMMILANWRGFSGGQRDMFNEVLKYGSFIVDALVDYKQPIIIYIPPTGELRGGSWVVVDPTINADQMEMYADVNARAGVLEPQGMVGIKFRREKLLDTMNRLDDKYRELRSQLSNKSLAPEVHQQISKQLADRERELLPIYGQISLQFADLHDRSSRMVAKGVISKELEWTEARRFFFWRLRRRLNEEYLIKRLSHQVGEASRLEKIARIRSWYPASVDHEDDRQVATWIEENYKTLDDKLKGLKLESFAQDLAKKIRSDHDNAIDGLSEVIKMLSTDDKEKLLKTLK

Chain of Human ACC2 (O00763 whole entry): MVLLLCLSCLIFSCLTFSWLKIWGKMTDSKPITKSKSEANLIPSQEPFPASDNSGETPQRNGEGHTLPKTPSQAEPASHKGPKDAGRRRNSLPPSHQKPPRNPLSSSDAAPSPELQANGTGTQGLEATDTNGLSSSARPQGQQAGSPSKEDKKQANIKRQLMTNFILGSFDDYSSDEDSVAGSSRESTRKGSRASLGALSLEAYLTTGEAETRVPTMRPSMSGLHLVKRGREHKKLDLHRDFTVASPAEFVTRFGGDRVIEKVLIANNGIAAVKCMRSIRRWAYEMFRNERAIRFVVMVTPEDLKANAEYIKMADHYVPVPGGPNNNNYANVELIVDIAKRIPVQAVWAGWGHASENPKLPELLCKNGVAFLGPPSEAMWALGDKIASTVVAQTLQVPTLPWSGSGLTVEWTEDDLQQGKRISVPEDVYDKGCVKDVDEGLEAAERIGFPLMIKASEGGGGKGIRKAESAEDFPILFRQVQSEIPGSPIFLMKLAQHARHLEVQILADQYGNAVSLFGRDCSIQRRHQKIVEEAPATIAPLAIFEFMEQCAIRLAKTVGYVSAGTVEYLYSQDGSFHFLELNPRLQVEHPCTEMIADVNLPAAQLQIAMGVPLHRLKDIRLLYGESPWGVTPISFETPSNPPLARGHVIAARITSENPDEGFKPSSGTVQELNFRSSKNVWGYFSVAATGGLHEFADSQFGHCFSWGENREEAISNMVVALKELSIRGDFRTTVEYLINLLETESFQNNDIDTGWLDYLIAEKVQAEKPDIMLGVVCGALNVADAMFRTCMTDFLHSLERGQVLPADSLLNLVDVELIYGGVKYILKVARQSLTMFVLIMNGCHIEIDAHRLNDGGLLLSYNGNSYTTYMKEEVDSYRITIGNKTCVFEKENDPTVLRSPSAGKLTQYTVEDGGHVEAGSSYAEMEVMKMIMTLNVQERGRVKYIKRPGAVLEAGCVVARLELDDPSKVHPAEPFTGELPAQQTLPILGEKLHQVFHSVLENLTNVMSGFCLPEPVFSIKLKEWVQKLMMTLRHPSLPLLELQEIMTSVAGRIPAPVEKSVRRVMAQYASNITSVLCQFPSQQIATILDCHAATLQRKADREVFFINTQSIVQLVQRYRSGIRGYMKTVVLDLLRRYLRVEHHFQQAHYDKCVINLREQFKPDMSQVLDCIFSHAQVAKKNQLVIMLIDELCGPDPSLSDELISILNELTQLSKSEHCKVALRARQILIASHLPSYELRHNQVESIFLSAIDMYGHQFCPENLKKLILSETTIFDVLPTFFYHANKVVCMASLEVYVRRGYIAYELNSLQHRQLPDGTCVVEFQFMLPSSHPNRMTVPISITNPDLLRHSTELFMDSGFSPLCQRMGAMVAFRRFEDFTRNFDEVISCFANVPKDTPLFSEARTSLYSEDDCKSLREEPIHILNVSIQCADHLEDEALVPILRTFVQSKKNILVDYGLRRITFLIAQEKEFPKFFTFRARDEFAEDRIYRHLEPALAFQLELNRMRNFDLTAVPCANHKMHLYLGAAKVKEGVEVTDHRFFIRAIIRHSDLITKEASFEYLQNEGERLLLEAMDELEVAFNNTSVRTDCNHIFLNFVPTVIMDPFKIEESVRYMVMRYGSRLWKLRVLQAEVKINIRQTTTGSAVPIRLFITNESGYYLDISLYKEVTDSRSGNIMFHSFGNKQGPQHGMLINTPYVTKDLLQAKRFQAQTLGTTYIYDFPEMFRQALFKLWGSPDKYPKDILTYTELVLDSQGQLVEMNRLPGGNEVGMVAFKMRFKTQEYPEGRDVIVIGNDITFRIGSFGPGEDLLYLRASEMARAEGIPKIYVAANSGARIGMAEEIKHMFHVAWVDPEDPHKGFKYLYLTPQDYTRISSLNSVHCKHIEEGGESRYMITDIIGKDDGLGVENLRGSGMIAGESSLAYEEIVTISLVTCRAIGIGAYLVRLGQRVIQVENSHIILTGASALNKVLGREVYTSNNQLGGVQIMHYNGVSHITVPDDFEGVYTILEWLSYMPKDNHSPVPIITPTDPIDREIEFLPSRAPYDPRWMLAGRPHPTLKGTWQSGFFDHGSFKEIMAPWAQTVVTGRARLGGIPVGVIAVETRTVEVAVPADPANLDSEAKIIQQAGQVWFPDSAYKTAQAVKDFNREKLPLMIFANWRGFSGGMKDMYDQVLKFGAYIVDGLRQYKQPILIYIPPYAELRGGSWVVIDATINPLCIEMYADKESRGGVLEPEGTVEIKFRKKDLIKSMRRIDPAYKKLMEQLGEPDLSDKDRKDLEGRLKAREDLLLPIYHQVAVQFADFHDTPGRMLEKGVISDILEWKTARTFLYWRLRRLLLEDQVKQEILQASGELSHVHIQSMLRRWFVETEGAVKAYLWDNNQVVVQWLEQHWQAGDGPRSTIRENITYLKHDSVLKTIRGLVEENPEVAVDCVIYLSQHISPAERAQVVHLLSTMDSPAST

Structure (SMILES)	Barley Powdery Mildew Control at 10 ppm [1]	IC50 (Human ACC2) [nM]	MIC (C. albicans ATCC 90028) [µg/mL]	MIC (C. krusei ATCC 6258) [µg/mL]	MIC [2] [µg/mL]	IC90 (Botrtyis cinerea (Bc)) [µg/mL]	IC90 [3] [µg/mL]	IC90 (Diplodia maydis (Dm)) [µg/mL]	IC90 [4] [µg/mL]	IC90 [5] [µg/mL]	IC90 [6] [µg/mL]	IC90 (Rhizoctonia solani (Rs)) [µg/mL]	IC90 (Septoria tritici (St)) [µg/mL]	pest or weed control at 50 ppm [7] [%]	IC50 (Fungal ACC2) [nM]
COc1ccc(F)cc1[C@H](Cn1c(=O)n([C@H]2CCCN(C)C2=O)c(=O)c2c(C)c(-n3nccn3)sc21)OCCO [Compound I-72, 1-((R)-2-(5-fluoro-2-methoxyphenyl)-2-(2-hydroxyethoxy)ethyl)-5-methyl-3-((S)-1-methyl-2-oxopiperidin-3-yl)-6-(2H-1,2,3-triazol-2-yl)thieno[2,3-d]pyrimidine-2,4(1H,3H)-dione]	D (provided a compound having <25% control of barley powdery mildew)	2 to 10	2.1 to 4 (≈ 3.67 to 6.99 µM)	2.1 to 4 (≈ 3.67 to 6.99 µM)	2.1 to 4 (≈ 3.67 to 6.99 µM)	> 50	10 (≈ 17.5 µM)	10 (≈ 17.5 µM)	2 (≈ 3.49 µM)	2 (≈ 3.49 µM)	> 50	2 (≈ 3.49 µM)	> 50	25 to 49	0.7 to 2
COc1ccc(F)cc1[C@H](Cn1c(=O)n([C@@H]2CCCN(C)C2=O)c(=O)c2c(C)c(-n3nccn3)sc21)OCCO [Compound I-73, 1-((R)-2-(5-fluoro-2-methoxyphenyl)-2-(2-hydroxy-ethoxy)ethyl)-5-methyl-3-((R)-1-methyl-2-oxopiperidin-3-yl)-6-(2H-1,2,3-triazol-2-yl)thieno[2,3-d]pyrimidine-2,4(1H,3H)-dione]	D (provided a compound having <25% control of barley powdery mildew)	10 to 100	2.1 to 4 (≈ 3.67 to 6.99 µM)	2.1 to 4 (≈ 3.67 to 6.99 µM)	2.1 to 4 (≈ 3.67 to 6.99 µM)	10 (≈ 17.5 µM)	2 (≈ 3.49 µM)	2 (≈ 3.49 µM)	2 (≈ 3.49 µM)	2 (≈ 3.49 µM)	> 50	2 (≈ 3.49 µM)	> 50	50 to 69	0.7 to 2
COc1ccc(F)cc1[C@H](Cn1c(=O)n([C@H]2CCNC2=O)c(=O)c2c(C)c(-n3nccn3)sc21)OCCO [Compound I-80, 1-((R)-2-(5-fluoro-2-methoxyphenyl)-2-(2-hydroxy-ethoxy)ethyl)-5-methyl-3-((S)-2-oxopyrrolidin-3-yl)-6-(2H-1,2,3-triazol-2-yl)thieno[2,3-d]pyrimidine-2,4(1H,3H)-dione]	D (provided a compound having <25% control of barley powdery mildew)	2 to 10	2.1 to 4 (≈ 3.86 to 7.35 µM)	2.1 to 4 (≈ 3.86 to 7.35 µM)	2.1 to 4 (≈ 3.86 to 7.35 µM)	2 (≈ 3.67 µM)	> 50	> 50	2 (≈ 3.67 µM)	10 (≈ 18.4 µM)	> 50	10 (≈ 18.4 µM)	> 50	25 to 49	0.7 to 2
COc1ccc(F)cc1[C@H](Cn1c(=O)n([C@H]2CCN(C)C2=O)c(=O)c2c(C)c(-n3nccn3)sc21)OCCO [Compound I-82, 1-((R)-2-(5-fluoro-2-methoxyphenyl)-2-(2-hydroxy-ethoxy)ethyl)-5-methyl-3-((S)-1-methyl-2-oxopyrrolidin-3-yl)-6-(2H-1,2,3-triazol-2-yl)thieno[2,3-d]pyrimidine-2,4(1H,3H)-dione]	D (provided a compound having <25% control of barley powdery mildew)	2 to 10	2.1 to 4 (≈ 3.76 to 7.16 µM)	2.1 to 4 (≈ 3.76 to 7.16 µM)	2.1 to 4 (≈ 3.76 to 7.16 µM)	2 (≈ 3.58 µM)	10 (≈ 17.9 µM)	10 (≈ 17.9 µM)	2 (≈ 3.58 µM)	2 (≈ 3.58 µM)	> 50	2 (≈ 3.58 µM)	> 50	25 to 49	0.7 to 2
COc1ccc(F)cc1[C@H](Cn1c(=O)n([C@@H]2CCN(C)C2=O)c(=O)c2c(C)c(-n3nccn3)sc21)OCCO [Compound I-83, 1-((R)-2-(5-fluoro-2-methoxyphenyl)-2-(2-hydroxy-ethoxy)ethyl)-5-methyl-3-((R)-1-methyl-2-oxopyrrolidin-3-yl)-6-(2H-1,2,3-triazol-2-yl)thieno[2,3-d]pyrimidine-2,4(1H,3H)-dione]	D (provided a compound having <25% control of barley powdery mildew)	2 to 10	2.1 to 4 (≈ 3.76 to 7.16 µM)	2.1 to 4 (≈ 3.76 to 7.16 µM)	2.1 to 4 (≈ 3.76 to 7.16 µM)	2 (≈ 3.58 µM)	2 (≈ 3.58 µM)	10 (≈ 17.9 µM)	2 (≈ 3.58 µM)	10 (≈ 17.9 µM)	> 50	2 (≈ 3.58 µM)	> 50	70 to 84	0.7 to 2
COc1ccc(F)cc1[C@H](Cn1c(=O)n([C@H]2CCNC2=O)c(=O)c2c(C)c(-n3nccn3)sc21)OCCC#N [Compound I-106, 3-((R)-1-(5-fluoro-2-methoxyphenyl)-2-(5-methyl-2,4-dioxo-3-((S)-2-oxopyrrolidin-3-yl)-6-(2H-1,2,3-triazol-2-yl)-3,4-dihydrothieno[2,3-d]pyrimidin-1(2H)-yl)ethoxy)propanenitrile]	D (provided a compound having <25% control of barley powdery mildew)	10 to 100	2.1 to 4 (≈ 3.79 to 7.23 µM)	2.1 to 4 (≈ 3.79 to 7.23 µM)	2.1 to 4 (≈ 3.79 to 7.23 µM)	2 (≈ 3.61 µM)	> 50	> 50	2 (≈ 3.61 µM)	10 (≈ 18.1 µM)	> 50	2 (≈ 3.61 µM)	> 50	25 to 49	0.7 to 2
COc1ccc(F)cc1[C@H](Cn1c(=O)n([C@H]2CCCNC2=O)c(=O)c2c(C)c(-n3nccn3)sc21)OCCC#N [Compound I-110, 3-((R)-1-(5-fluoro-2-methoxyphenyl)-2-(5-methyl-2,4-dioxo-3-((S)-2-oxopiperidin-3-yl)-6-(2H-1,2,3-triazol-2-yl)-3,4-dihydrothieno[2,3-d]pyrimidin-1 (2H)-yl)ethoxy)propanenitrile]	D (provided a compound having <25% control of barley powdery mildew)	10 to 100	2.1 to 4 (≈ 3.7 to 7.05 µM)	2.1 to 4 (≈ 3.7 to 7.05 µM)	2.1 to 4 (≈ 3.7 to 7.05 µM)	2 (≈ 3.52 µM)	10 (≈ 17.6 µM)	> 50	2 (≈ 3.52 µM)	10 (≈ 17.6 µM)	> 50	2 (≈ 3.52 µM)	> 50	50 to 69	0.7 to 2
COc1ccc(F)cc1[C@H](Cn1c(=O)n([C@@H]2CCCNC2=O)c(=O)c2c(C)c(-n3nccn3)sc21)OCCC#N [Compound I-111, 3-((R)-1-(5-fluoro-2-methoxyphenyl)-2-(5-methyl-2,4-dioxo-3-((R)-2-oxopiperidin-3-yl)-6-(2H-1,2,3-triazol-2-yl)-3,4-dihydrothieno[2,3-d]pyrimidin-1(2H)-yl)ethoxy)propanenitrile]	C (provided a compound having from 25 to 49% control of barley powdery mildew)	2 to 10	2.1 to 4 (≈ 3.7 to 7.05 µM)	2.1 to 4 (≈ 3.7 to 7.05 µM)	2.1 to 4 (≈ 3.7 to 7.05 µM)	2 (≈ 3.52 µM)	10 (≈ 17.6 µM)	10 (≈ 17.6 µM)	2 (≈ 3.52 µM)	10 (≈ 17.6 µM)	> 50	2 (≈ 3.52 µM)	> 50	50 to 69	0.7 to 2
